Reference: patent US11254668B2, “Pyrazolo[1,5-A]pyrazin-4-yl and related derivatives” (Pfizer Inc., priority 2017, dated 2022)
Like-named read-outs stand apart in the source and are kept apart here.

Key:
Type in all cases: biochemical
[1] = biological target: JAK3 (Homo sapiens (Human), UniProt P52333); test: JAK Caliper Enzyme Assay at 1 mM ATP, JAK3
Summary of the method: (§1)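 IC50 (nM) derived from percent conversion of fluorescently labelled peptide, measured by Caliper LabChip mobility-shift separation after EDTA stop. Each JAK family kinase domain (human, recombinant) run at 1 mM ATP and room temperature, conditions set to 20-30% product; DMSO wells define uninhibited baseline.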

[2] = biological target: JAK2 (Homo sapiens (Human), UniProt O60674); test: JAK Caliper Enzyme Assay at 1 mM ATP, JAK2
Summary of the method: (§2)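 Human recombinant kinase domain + fluorescently labelled synthetic peptide, 1 mM ATP, RT; enzyme level/time set for 20–30% phosphorylation. EDTA stop. LabChip separation, peak-height % conversion, % effect vs plate controls.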

[3] = biological target: JAK1 (Homo sapiens (Human), UniProt P23458); test: JAK Caliper Enzyme Assay at 1 mM ATP, JAK1
Summary of the method: as §1

[4] = biological target: TYK2 (Homo sapiens (Human), UniProt P29597); test: JAK Caliper Enzyme Assay at 1 mM ATP, TYK2
Summary of the method: as §2

TYK2, sequence (P29597 897-1176): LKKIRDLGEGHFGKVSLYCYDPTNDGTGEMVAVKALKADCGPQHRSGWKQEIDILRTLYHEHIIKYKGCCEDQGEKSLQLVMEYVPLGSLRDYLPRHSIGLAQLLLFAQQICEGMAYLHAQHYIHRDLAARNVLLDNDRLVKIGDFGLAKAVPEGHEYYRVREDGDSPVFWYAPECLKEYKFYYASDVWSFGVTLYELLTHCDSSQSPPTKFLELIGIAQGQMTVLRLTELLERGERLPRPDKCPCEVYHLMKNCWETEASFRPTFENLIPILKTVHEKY
JAK1, sequence (P23458 875-1153): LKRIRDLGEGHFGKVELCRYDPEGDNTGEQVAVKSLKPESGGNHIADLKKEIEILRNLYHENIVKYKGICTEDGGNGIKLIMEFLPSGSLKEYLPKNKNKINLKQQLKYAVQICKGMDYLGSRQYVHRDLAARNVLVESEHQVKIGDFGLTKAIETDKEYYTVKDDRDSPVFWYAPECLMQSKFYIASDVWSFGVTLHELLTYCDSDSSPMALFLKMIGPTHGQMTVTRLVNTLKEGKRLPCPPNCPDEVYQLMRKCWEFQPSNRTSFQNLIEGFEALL
JAK3, sequence (P52333 822-1111): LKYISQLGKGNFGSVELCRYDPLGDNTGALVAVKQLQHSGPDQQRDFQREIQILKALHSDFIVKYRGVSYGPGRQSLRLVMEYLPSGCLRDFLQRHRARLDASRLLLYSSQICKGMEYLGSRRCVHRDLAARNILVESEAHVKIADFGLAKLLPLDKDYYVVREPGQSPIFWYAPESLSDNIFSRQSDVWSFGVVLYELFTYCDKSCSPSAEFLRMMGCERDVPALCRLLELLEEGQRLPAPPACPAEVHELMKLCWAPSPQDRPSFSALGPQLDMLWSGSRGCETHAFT
JAK2, sequence (O60674 849-1124): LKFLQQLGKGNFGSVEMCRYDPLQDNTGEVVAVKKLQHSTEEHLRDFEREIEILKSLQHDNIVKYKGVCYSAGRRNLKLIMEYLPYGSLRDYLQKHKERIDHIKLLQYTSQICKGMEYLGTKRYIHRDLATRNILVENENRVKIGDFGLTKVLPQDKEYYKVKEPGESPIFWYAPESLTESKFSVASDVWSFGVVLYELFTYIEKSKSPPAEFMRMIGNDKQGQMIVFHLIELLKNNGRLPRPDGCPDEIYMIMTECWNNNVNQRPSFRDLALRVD

SMILES	IC50 [1] [nM]	IC50 [2] [nM]	IC50 [3] [nM]	IC50 [4] [nM]	IC50 ([1]; JAK Caliper enzyme assay) [nM]	IC50 ([2]; JAK Caliper enzyme assay) [nM]	IC50 ([3]; JAK Caliper enzyme assay) [nM]	IC50 ([4]; JAK Caliper enzyme assay) [nM]
Cn1cc(-c2cc(-c3cn(C4(CC#N)CN(S(C)(=O)=O)C4)nn3)c3cccnc3c2)cn1 [Example 294, [3-{4-[7-(1-methyl-1H-pyrazol-4-yl)quinolin-5-yl]-1H-1,2,3-triazol-1-yl}-1-(methylsulfonyl)azetidin-3-yl]acetonitrile]	> 10000	151	1340	267	–	–	–	–
N#CCC1(n2ncc(-c3cc(-c4cccc5c4NC(=O)C5)cc4ncccc34)n2)CC(C#N)C1 (stereo not drawn) [Example 450, trans-3-(cyanomethyl)-3-{4-[7-(2-oxo-2,3-dihydro-1H-indol-7-yl)quinolin-5-yl]-2H-1,2,3-triazol-2-yl}cyclobutanecarbonitrile]	–	–	–	–	> 10000	> 10000	> 10000	1420
CS(=O)(=O)N1CC(CC#N)(n2ccc(-c3nc(-c4ccccc4O)cc4ncccc34)n2)C1 [Example 252, [3-{3-[7-(2-hydroxyphenyl)-1,6-naphthyridin-5-yl]-1H-pyrazol-1-yl}-1-(methylsulfonyl)azetidin-3-yl]acetonitrile]	> 10000	118	663	15	–	–	–	–
CS(=O)(=O)N1CC(CC#N)(n2ncc(-c3cc(-c4ccc(F)c(CO)c4)cc4ncccc34)n2)C1 [Example 446, [3-(4-{7-[4-fluoro-3-(hydroxymethyl)phenyl]quinolin-5-yl}-2H-1,2,3-triazol-2-yl)-1-(methylsulfonyl)azetidin-3-yl]acetonitrile]	–	–	–	–	> 10000	964	4730	101
CS(=O)(=O)N1CC(CC#N)(n2cc(-c3cc(-c4ccc(=O)[nH]c4)cc4ncccc34)nn2)C1 [Example 295, [1-(methylsulfonyl)-3-{4-[7-(6-oxo-1,6-dihydropyridin-3-yl)quinolin-5-yl]-1H-1,2,3-triazol-1-yl}azetidin-3-yl]acetonitrile]	> 10000	2580	7720	155	–	–	–	–
Cn1nncc1-c1cc(-c2cnn([C@]3(CC#N)C[C@H](C#N)C3)n2)c2cccnc2c1 [Example 338, cis-3-(cyanomethyl)-3-{4-[7-(1-methyl-1H-1,2,3-triazol-5-yl)quinolin-5-yl]-2H-1,2,3-triazol-2-yl}cyclobutanecarbonitrile]	> 10000	> 10000	> 10000	2460	–	–	–	–
Cn1nccc1-c1cc2ncccc2c(-c2ccn(C3(CC#N)CN(CC(F)(F)F)C3)n2)n1 [Example 54, [3-{3-[7-(1-methyl-1H-pyrazol-5-yl)-1,6-naphthyridin-5-yl]-1H-pyrazol-1-yl}-1-(2,2,2-trifluoroethyl)azetidin-3-yl]acetonitrile]	> 10000	2100	2300	214	–	–	–	–
Cc1cc(-c2cc3ncccc3c(-c3ccn([C@]4(CC#N)C[C@](C)(C#N)C4)n3)n2)n[nH]1 [Example 45, cis-3-(cyanomethyl)-1-methyl-3-{3-[7-(5-methyl-1H-pyrazol-3-yl)-1,6-naphthyridin-5-yl]-1H-pyrazol-1-yl}cyclobutanecarbonitrile]	> 10000	125	739	33	–	–	–	–
N#CCC1(n2ccc(-c3nc(-c4cn(C5COC5)cn4)cc4ncccc34)n2)CN(CC(F)(F)F)C1 [Example 144, [3-(3-{7-[1-(oxetan-3-yl)-1H-imidazol-4-yl]-1,6-naphthyridin-5-yl}-1H-pyrazol-1-yl)-1-(2,2,2-trifluoroethyl)azetidin-3-yl]acetonitrile]	> 10000	1370	> 10000	223	–	–	–	–
N#CC[C@]1(n2cc(-c3cc(-c4ccc(N)nc4)cc4nccn34)cn2)C[C@@H](C#N)C1 [Example 469, cis-3-{4-[7-(6-aminopyridin-3-yl)imidazo[1,2-a]pyridin-5-yl]-1H-pyrazol-1-yl}-3-(cyanomethyl)cyclobutanecarbonitrile]	–	–	–	–	> 10000	1040	2390	102

The next lines start with the values.

IC50 [1] [nM]	IC50 [2] [nM]	IC50 [3] [nM]	IC50 [4] [nM]	IC50 ([1]; JAK Caliper enzyme assay) [nM]	IC50 ([2]; JAK Caliper enzyme assay) [nM]	IC50 ([3]; JAK Caliper enzyme assay) [nM]	IC50 ([4]; JAK Caliper enzyme assay) [nM]	SMILES
> 10000	> 10000	> 10000	7680	–	–	–	–	N#CCC1(n2ccc(-c3nccc4ncccc34)n2)CN(CC(F)(F)F)C1 [Example 15, {3-[3-(1,6-naphthyridin-5-yl)-1H-pyrazol-1-yl]-1-(2,2,2-trifluoroethyl)azetidin-3-yl}acetonitrile]
> 10000	959	2590	74	–	–	–	–	C[C@]1(C#N)C[C@@](CC#N)(n2ncc(-c3cc(-c4cn[nH]c4N)cc4ncccc34)n2)C1 [Example 322, cis-3-{4-[7-(5-amino-1H-pyrazol-4-yl)quinolin-5-yl]-2H-1,2,3-triazol-2-yl}-3-(cyanomethyl)-1-methylcyclobutanecarbonitrile]
> 10000	955	1800	53	–	–	–	–	CO[C@H]1C[C@@](CC#N)(n2ccc(-c3nc(-c4ccn[nH]4)cc4ncccc34)n2)C1 [Example 31, (cis-3-methoxy-1-{3-[7-(1H-pyrazol-5-yl)-1,6-naphthyridin-5-yl]-1H-pyrazol-1-yl}cyclobutyl)acetonitrile]
> 10000	973	> 10000	130	–	–	–	–	Cc1cc(-c2cc(-c3cnn(C4(CC#N)CN(S(C)(=O)=O)C4)n3)c3cccnc3c2)ccn1 [Example 356, [3-{4-[7-(2-methylpyridin-4-yl)quinolin-5-yl]-2H-1,2,3-triazol-2-yl}-1-(methylsulfonyl)azetidin-3-yl]acetonitrile]
> 10000	876	> 10000	143	–	–	–	–	N#CCC1(n2ncc(-c3cc(-c4ccc(F)cn4)cc4ncccc34)n2)CC(C#N)C1 (stereo not drawn) [Example 348, trans-3-(cyanomethyl)-3-{4-[7-(5-fluoropyridin-2-yl)quinolin-5-yl]-2H-1,2,3-triazol-2-yl}cyclobutanecarbonitrile]
> 10000	7690	> 10000	844	–	–	–	–	C[C@]1(C#N)C[C@](CC#N)(n2ncc(-c3cc(-c4c[nH]nc4N)cc4ncccc34)n2)C1 [Example 321, trans-3-{4-[7-(3-amino-1H-pyrazol-4-yl)quinolin-5-yl]-2H-1,2,3-triazol-2-yl}-3-(cyanomethyl)-1-methylcyclobutanecarbonitrile]
> 10000	1290	2730	129	–	–	–	–	N#CCC1(n2ccc(-c3nc(-c4ccc5nncn5c4)cc4ncccc34)n2)CN(CC(F)(F)F)C1 [Example 167, [3-{3-[7-([1,2,4]triazolo[4,3-a]pyridin-6-yl)-1,6-naphthyridin-5-yl]-1H-pyrazol-1-yl}-1-(2,2,2-trifluoroethyl)azetidin-3-yl]acetonitrile]
> 10000	510	7430	34	–	–	–	–	Cc1cc(-c2cc3ncccc3c(-c3ccn([C@]4(CC#N)C[C@@H](C#N)C4)n3)n2)nn1C [Example 58, trans-3-(cyanomethyl)-3-{3-[7-(1,5-dimethyl-1H-pyrazol-3-yl)-1,6-naphthyridin-5-yl]-1H-pyrazol-1-yl}cyclobutanecarbonitrile]
